Laboratory results from patent publication US20100267952A1, “USE OF NOVEL COMPOUND HAVING AFFINITY FOR AMYLOID, AND PROCESS FOR PRODUCTION OF THE SAME” (NIHON MEDI-PHYSICS CO., LTD., priority 2007, published 2010).
Read-outs that look alike come from different tables or passages of the source. Values belong to the molecule of their own block, whether it stands above or below them.

Columns and labels:
[1] = [11C]-labeled, rats; cited from earlier work
[2] = [125I]-labeled, normal mice; cited from earlier work
[3] = biological target: T1, amyloid (aggregated Aβ1-40) (Homo sapiens, UniProt P05067); test: Measurement of affinity with amyloid: inhibition of [125I]3′-I-BTA-0 binding; conditions: [125I]3′-I-BTA-0 400 pmol/L, amyloid 1 μmol/L, 22° C., 3 hours
T1 construct: Aβ1-40 (Peptide Institute, INC.) was dissolved in phosphate buffer (pH 7.4); purchased Peptide Institute, INC
T1 sequence (P05067 672-711 limits assumed): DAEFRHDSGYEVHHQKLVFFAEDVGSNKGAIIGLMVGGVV
Procedure: Affinity of the present compounds with amyloid was examined by the following in vitro binding tests.
(1) Aβ1-40 (Peptide Institute, INC.) was dissolved in phosphate buffer (pH 7.4) and shaken at 37° C. for 62-72 hours, to obtain a 1 mg/mL suspension of aggregated Aβ (hereinafter referred to as amyloid suspension in this Example).
(3) According to the method described in a literature (Wang, Y., et al., J. Labeled Compounds Radiopharmaceut. 44, 5239 (2001)), [^125I]2-(3′-iodo-4′-aminophenyl)benzothiazole (hereinafter referred to as […]) was prepared from a labeling precursor 2-(4′-aminophenyl)benzothiazole, and dissolved in ethanol.
(5) Samples in which [^125I]3′-I-BTA-0, each compound for evaluation and amyloid were dissolved in a 0.1% bovine serum albumin-containing phosphate buffer (pH 7.4) at final concentrations shown in Table 1-2 were prepared. The resulting samples were filled in each well (about 0.3 mL in volume) of a 96-well microplate.
(6) The microplate filled with the sample solutions was shaken at a given rate (400 rpm) at 22° C. for 3 hours. Then, each sample solution was filtered through a glass fiber filter (trade name: Mulutiscreen™-FC, manufactured by Millipore), to separate the [^125I]3′-I-BTA-0 attached to amyloid from the free [^125I]3′-I-BTA-0.
(7) The glass fiber filter used for the filtration of each sample solution was washed with a 0.1% bovine serum albumin-containing phosphate buffer (pH 7.4) (0.5 mL×5), and radioactivity of the glass fiber filter was measured with an autowell gamma system (manufactured by Aloka, Type: ARC-301B).
(8) Separately, a solution of containing 15 μmol/L of 6-Me-BTA-2, […] of [^125I]3′-I-BTA-0 and 1 μmol/L of Aβ1-40 were prepared and subjected to the same procedures as described above in (6) and (7) to measure a radioactivity level. The measured radioactivity level was defined as the background radioactivity level, and used in the calculation of the inhibition ratio (hereinafter referred to as BG).
(9) Using the radioactivity levels measured above in (7) and (8), the inhibition ratio was determined by the following formula (1-1).
A graph in which values converted by probit transformation from the obtained inhibition ratios were plotted relative to logarithms of concentrations of compounds for evaluation was prepared to obtain an approximate straight line by the least square method. Using the line, the concentration of each compound for evaluation was determined, at which the radioactivity level is half of the level of the sample free from each compound for evaluation, and was defined as a 50% inhibition concentration of each compound (hereinafter referred to as IC50% value). Using the value as an indicator, affinity of each compound for evaluation with amyloid (aggregated Aβ1-40) was evaluated.

[4] = system: Salmonella typhimurium TA98; test: Reverse mutation test (Ames test), TA98; type: cell-based
Procedure: (§1) In order to examine mutagenicity of Compound I-1, I-2, I-4 and I-5, reverse mutation test using Salmonella typhimurium TA98 and TA100 (hereinafter referred to as Ames test) was conducted.
(§2) The test was conducted without addition of S9mix and with addition of S9mix. Dimethylsulfoxide was used as a negative control. A positive control was 2-(2-furyl)-3-(5-nitro-2-furyl)acrylamide in case S9mix was not added, and 2-aminoanthracene in case S9mix was added.
(§3) The amount of each sample to be added to the test plate was 7 dosages (geometric ratio 4) with the maximum dose being 1250 μg/plate for Compounds I-1 and I-5, and 7 dosages (geometric ratio 3) with the maximum dose being 5000 μg/plate for Compounds I-2 and I-4. After a sample to be examined and a strain (TA98 or TA100), or a sample to be examined, S9mix and the strain were mixed together, the mixture was multilayered using soft agar on a medium of a test plate, and then incubated at 37° C. for 48 hours.

[5] = system: Salmonella typhimurium TA100; test: Reverse mutation test (Ames test), TA100; type: cell-based
Procedure: as §1, §2, §3

[6] = system: Salmonella typhimurium TA98 and TA100; test: Reverse mutation test (Ames test), overall judgment; type: cell-based; conditions: TA98 and TA100, with and without S9mix
Procedure: as §1, §2, §3
The numbers of reverse mutation colonies of the respective strains in the group treated with Compounds I-1, I-2, I-4 and I-5 were less than two times the number in the group treated with the negative control, regardless of addition of S9mix and the addition amount of a sample to be examined. From the aforementioned results, it is judged that Compounds I-1, I-2, I-4 and I-5 are negative in the Ames test and have no mutagenicity.

[7] = Partition coefficient based on the octanol extraction method; type: physicochemical; conditions: octanol / 10 mmol/L phosphate buffer (pH 7.4)
Procedure: After the mixture was centrifuged with a low-speed centrifuge (2000 rpm×60 min.), the octanol layer and the water layer were sampled each in an amount of 1 mL, and subjected to measurement of radioactivity count with an autowell gamma system (manufactured by Aloka, Type: ARC-301B). Using the obtained radioactivity count, log Poctanol was calculated in accordance with the equation (1-2).

[8] = Transferability into brain and clearance; type: in vivo, male Wistar rats; conditions: rats, intravenous injection
Source text: Three animals were used for Experiment I-20 and Comparative Experiment I-9, and two animals were used for Experiment I-21 at the respective time points.

[9] = International Publication No. WO03/106439; cited from earlier work
amyloid (amylin) = biological target: T2, amyloid (amylin) (Homo sapiens, UniProt P10997); test: Inhibition of binding of Thioflavin T to amyloid derived from amylin; conditions: Thioflavin T 5 μmol/L
T2 construct: Amylin (human) (manufactured by Wako) was dissolved in phosphate buffer (pH 7.4); purchased Wako
T2 sequence (P10997 34-70 limits assumed): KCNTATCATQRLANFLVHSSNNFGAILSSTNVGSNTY
Procedure: Amylin is an amyloid accumulating in pancreas of type II diabetes.
(3) The amyloid suspension was dissolved in 50 mM phosphate buffer (pH 7.4) at a concentration of amylin of 15 μM.
(4) Samples in which each compound for evaluation and amyloid were dissolved in a 50 mM phosphate buffer (pH 7.4) at final concentrations shown in Table 2-1 were prepared.
(5) A sample in which 100 μL of 50 mM phosphate buffer (pH 7.4) and 50 μL of 50 mM glycin-NaOH buffer (pH 8.5) were mixed was made as a blank, and subjected to the same procedure as in (4) and used for a calculation of inhibition ratio.
(6) The microplate filled with the sample solutions was left to stand still for 30 hours. Then, fluorescence strength of each sample solution was measured (measurement conditions: excitation wavelength of 446 nm, emission wavelength of 490 nm) with microplate reader (type: SPECTRA MAX GEMINI XS, manufactured by Molecular Devices) (hereinafter, A denotes the fluorescence strength in a sample with zero (0) concentration of each compound for evaluation, and B denotes the fluorescence strength in a sample with 1.5 μmol/L or higher concentration of each compound for evaluation).
(7) Using the fluorescence strength measured above in (6), the following formula (2-1): […]
was used to determine the inhibition ratio.

[10] = biological target: T1, amyloid (aggregated Aβ1-40); test: Measurement of binding to amyloid (radiolabelled compound, glass fiber filtration); conditions: amyloid 2.5-1000 nmol/L, 22° C., 3 hours
Procedure: (7) A relation between the amount of the Compound I-6 binding to amyloid and the amount of added amyloid was evaluated from the measurement results of (6). Unspecific binding was determined using a sample to which the Compound I-2 (non-RI labeled compound) was added to become 100 nM (at a final concentration) above in (4) (Example I-7).
(8) Using [^125I]-IMPY synthesized in the above Reference Example I-6, the same procedure as the above (2) to (6) were carried out to obtain control data (Comparative Example I-1).
A relation between the concentration of amyloid in the sample solution and the radioactive count on the glass fiber filter measured above in (6) is shown in FIG. 1-11. The radioactivity on the glass fiber was increased proportionally to the concentration (addition amount) of amyloid (Example I-7). […] Therefore, the radioactive count on the glass fiber is a value reflecting the amount of the compound attached to amyloid, and the slope of the graph which plotted the radioactive count relative to the concentration of amyloid is a value which can be an index representing the intensity of binding to amyloid.

[11] = biological target: T3, amyloid (aggregated Aβ1-40) injected into amygdaloid nucleus (Homo sapiens, UniProt P05067); test: Confirmation of imaging of amyloid in brain (autoradiogram of brain slice, Aβ1-40 injected rat); type: in vivo, male Wistar rat; conditions: tail vein, 16 MBq equivalent, brain removed 60 minutes after injection
T3 construct: Aβ1-40 (Peptide Institute, INC.) was dissolved in phosphate buffer (pH 7.4); purchased Peptide Institute, INC
T3 sequence (P05067 672-711): as the sequence (P05067 672-711 limits assumed) above
Procedure: The following experiment was carried out in order to examine whether amyloid in brain can be imaged by the compound of the present invention.
(1) Aβ1-40 (manufactured by Peptide Institute, INC.) was dissolved in phosphate buffer (pH 7.4) and shaken at 37° C. for 72 hours, to obtain 1 mg/mL of a suspension of aggregated Aβ (hereinafter referred to as amyloid suspension in this Example).
(2) 25 μL (corresponding to 25 μg) of the amyloid suspension was injected into an amygdaloid nucleus on one side of a male Wistar rat (7-week old). As a control, 25 μL of a phosphate buffered physiological saline solution (pH 7.4) was injected into an amygdaloid nucleus on the other side of the rat. The rats were examined 1 day after the injection of the amyloid suspension and the phosphate buffered physiological saline solution (pH 7.4).
This solution was injected into the rat through the tail vein (dosage: 0.5 mL, dosed radioactivity: 16 MBq equivalent).
(4) Brain was removed 60 minutes after the injection to prepare a brain slice of 10 μm in thickness with a microtome (type: CM3050S, manufactured by LEICA). The brain slice was exposed to an imaging plate for 20 hours, and then image analysis was carried out by use of a Bio-imaging Analyzer (type: BAS-2500; manufactured by FUJIFILM Corporation).

SMILES: CNc1ccc(/C=C/c2ccc(O)cc2)cc1 [SB-13, (E)-4-methylamino-4′-hydroxystilbene]
clearance from normal tissues [1]: it cannot be said that the clearance is sufficiently fast

SMILES: CN(C)c1ccc(-c2nc3ccc(I)cc3s2)cc1 [TZDM, 6-iodo-2-[4′-(N,N-dimethylamino)phenyl]benzothiazole]
clearance from normal tissues [2]: insufficient in clearance from normal tissues

SMILES: FCCCOc1ccc(-c2cn3cc(I)cnc3n2)cc1 [Compound I-5, 2-[4′-(3″-fluoropropoxy)phenyl]-6-iodoimidazo[1,2-a]pyrimidine]
IC50 [3]: 55.4 nM
Mutagenicity, TA98, With addition of S9mix [4]: Negative
Mutagenicity, TA98, Without addition of S9mix [4]: Negative
Mutagenicity, TA100, With addition of S9mix [5]: Negative
Mutagenicity, TA100, Without addition of S9mix [5]: Negative
Ames test judgment [6]: negative

logPoctanol value [7]: 2.0
Radioactive distribution per unit weight in brain, After 2 min. [8]: 1.20 % ID/g
Radioactive distribution per unit weight in brain, After 5 min. [8]: 0.75 % ID/g
Radioactive distribution per unit weight in brain, After 30 min. [8]: 0.18 % ID/g
Radioactive distribution per unit weight in brain, After 60 min. [8]: 0.12 % ID/g
SMILES: [18F]CCCOc1ccc(-c2cn3cc(Br)ccc3n2)cc1 [Compound I-8, 6-bromo-2-[4′-(3″-[^18F]fluoropropoxy)-phenyl]imidazo[1,2-a]pyridine]

IC50 [3]: 1.8 nM
SMILES: FCCOc1ccc(-c2cn3cc(Br)ccc3n2)cc1 [Compound I-3, 6-bromo-2-[4′-(2″-fluoroethoxy)phenyl]imidazo[1,2-a]pyridine]

SMILES: CC(=C(C#N)C#N)c1ccc2cc(N(C)CCF)ccc2c1 [FDDNP, 2-(1-{6-[(2-fluoroethyl)(methyl)amino]-2-naphthyl}ethylidene)malononitrile]
reverse mutation test [9]: positive

SMILES: CN(C)c1ccc(/C=C/c2ccc(I)cc2)cc1 [m-I—SB, (E)-4-dimethylamino-4′-iodostilbene]
clearance from normal tissues [2]: insufficient in clearance from normal tissues

SMILES: FCCCOc1ccc(-c2cn3cc(I)ccc3n2)cc1 [Compound I-2, 2-[4′-(3″-fluoropropoxy)phenyl]-6-iodoimidazo[1,2-a]pyridine]
IC50 [3]: 0.9 nM
Mutagenicity, TA98, With addition of S9mix [4]: Negative
Mutagenicity, TA98, Without addition of S9mix [4]: Negative
Mutagenicity, TA100, With addition of S9mix [5]: Negative
Mutagenicity, TA100, Without addition of S9mix [5]: Negative
Ames test judgment [6]: negative
Inhibition ratio (%) of binding of amyloid (amylin) to Thioflavin T (amyloid (amylin); compound 1.5 μmol/L): 28.9%
Inhibition ratio (%) of binding of amyloid (amylin) to Thioflavin T (amyloid (amylin); compound 15 μmol/L): 26.6%
Inhibition ratio (%) of binding of amyloid (amylin) to Thioflavin T (amyloid (amylin); compound 30 μmol/L): 28.2%

SMILES: FCCCOc1ccc(-c2cn3cc(Br)ccc3n2)cc1 [Compound I-1, 6-bromo-2-[4′-(3″-fluoropropoxy)phenyl]imidazo[1,2-a]pyridine]
IC50 [3]: 1.4 nM
Mutagenicity, TA98, With addition of S9mix [4]: Negative
Mutagenicity, TA98, Without addition of S9mix [4]: Negative
Mutagenicity, TA100, With addition of S9mix [5]: Negative
Mutagenicity, TA100, Without addition of S9mix [5]: Negative
Ames test judgment [6]: negative
Inhibition ratio (%) of binding of amyloid (amylin) to Thioflavin T (amyloid (amylin); compound 1.5 μmol/L): 14.5%
Inhibition ratio (%) of binding of amyloid (amylin) to Thioflavin T (amyloid (amylin); compound 15 μmol/L): 37.0%
Inhibition ratio (%) of binding of amyloid (amylin) to Thioflavin T (amyloid (amylin); compound 30 μmol/L): 43.7%

SMILES: CN(C)c1ccc(-c2nc3ccc(I)cc3o2)cc1 [IBOX, 6-iodo-2-[4′-(N,N-dimethylamino)phenyl]benzoxazole]
clearance from normal tissues [2]: insufficient in clearance from normal tissues

SMILES: FCCCOc1ccc(-c2cn3cc([125I])ccc3n2)cc1 [Compound I-6, 2-[4′-(3″-fluoropropoxy)phenyl]-6-[^125I]iodoimidazo[1,2-a]pyridine]
slope of radioactive count on glass fiber relative to concentration of amyloid (index of intensity of binding to amyloid) [10]: greater than the slope for [^125I]-IMPY

SMILES: FCCCOc1ccc(-c2cn3cc([123I])ccc3n2)cc1 [Compound I-7, 2-[4′-(3″-fluoropropoxy)phenyl]-6-[^123I]iodoimidazo[1,2-a]pyridine]
Radioactive distribution per unit weight in brain, After 2 min. [8]: 1.10 % ID/g
Radioactive distribution per unit weight in brain, After 5 min. [8]: 0.75 % ID/g
Radioactive distribution per unit weight in brain, After 30 min. [8]: 0.12 % ID/g
Radioactive distribution per unit weight in brain, After 60 min. [8]: 0.05 % ID/g
accumulation of radioactivity on intracerebral amyloid (autoradiogram) [11]: possesses a property of accumulating on intracerebral amyloid and a capability of imaging intracerebral amyloid
